Target: human-KAT6A (MYST domain 507-778 aa) (Homo sapiens (Human), UniProt Q92794)
Assay: KAT6A biochemical assay (TR-FRET)
Conditions: for IC50: TR-FRET, histone H4 peptide 200 nM, acetyl-CoA 600 nM, read-out: KAT6A IC50
Summary of the method: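 KAT6A MYST domain preincubated with compound 30 min at 25° C, then reacted 60 min at 25° C with 200 nM biotin-H4 peptide and 600 nM acetyl-CoA (final). Europium anti-acetyl-lysine/streptavidin-APC TR-FRET read (Ex 340, Em 615/665 nm); % inhibition from 665/615 ratio, IC50 by sigmoidal fit.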

Sequence of human-KAT6A (MYST domain 507-778 aa) (Q92794 507-778): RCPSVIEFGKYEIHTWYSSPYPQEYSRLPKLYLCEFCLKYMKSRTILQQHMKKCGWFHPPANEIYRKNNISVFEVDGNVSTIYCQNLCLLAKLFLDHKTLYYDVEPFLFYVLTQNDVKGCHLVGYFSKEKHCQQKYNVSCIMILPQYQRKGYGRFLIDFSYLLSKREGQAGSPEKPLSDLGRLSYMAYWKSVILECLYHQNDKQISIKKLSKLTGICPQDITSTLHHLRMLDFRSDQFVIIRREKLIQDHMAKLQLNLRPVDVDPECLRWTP

SMILES	IC50 [nM]	inhibition at 1 µM (@ 1 μM, reported where IC50 could not be determined, read-out: Percent inhibition at specific concentration (KAT6A)) [%]
COc1cc(OC)c([S@](=N)(=O)NC(=O)c2ccc(Cn3cccn3)c(OC)c2)c(OC)c1 [Compound 299a, (R)-4-((1H-pyrazol-1-yl)methyl)-3-methoxy-N-(2,4,6-trimethoxyphenylsulfonimidoyl)benzamide]	15	–
COc1cc(OC)c([S@@](=N)(=O)NC(=O)c2ccc(Cn3cccn3)c(OC)c2)c(OC)c1 [Compound 299b, (S)-4-((1H-pyrazol-1-yl)methyl)-3-methoxy-N-(2,4,6-trimethoxyphenylsulfonimidoyl)benzamide]	226	–
COc1cccc(OC)c1[S@](=N)(=O)NC(=O)c1ccc(Cn2cccn2)c(OC(F)(F)F)c1 [Compound 300a, (R)-4-((1H-pyrazol-1-yl)methyl)-N-(2,6-dimethoxyphenylsulfonimidoyl)-3-(trifluoromethoxy)benzamide]	125	–
COc1cccc(OC)c1[S@@](=N)(=O)NC(=O)c1ccc(Cn2cccn2)c(OC(F)(F)F)c1 [Compound 300b, (S)-4-((1H-pyrazol-1-yl)methyl)-N-(2,6-dimethoxyphenylsulfonimidoyl)-3-(trifluoromethoxy)benzamide]	18	–
COc1ccc(C)c(OC)c1[S@](=N)(=O)NC(=O)c1ccc(Cn2cccn2)c(OC)n1 [Compound 301a, (R)-5-((1H-pyrazol-1-yl)methyl)-N-(2,6-dimethoxy-3-methylphenylsulfonimidoyl)-6-methoxypicolinamide]	313	–
COc1ccc(C)c(OC)c1[S@@](=N)(=O)NC(=O)c1ccc(Cn2cccn2)c(OC)n1 [Compound 301b, (S)-5-((1H-pyrazol-1-yl)methyl)-N-(2,6-dimethoxy-3-methylphenylsulfonimidoyl)-6-methoxypicolinamide]	17	–
COc1cc(C(=O)N[S@@](=N)(=O)c2c(OC)ccc(Cl)c2OC)ccc1Cn1cccn1 [Compound 302a, (R)-4-((1H-pyrazol-1-yl)methyl)-N-(3-chloro-2,6-dimethoxyphenylsulfonimidoyl)-3-methoxybenzamide]	21	–
COc1cc(C(=O)N[S@](=N)(=O)c2c(OC)ccc(Cl)c2OC)ccc1Cn1cccn1 [Compound 302b, (S)-4-((1H-pyrazol-1-yl)methyl)-N-(3-chloro-2,6-dimethoxyphenylsulfonimidoyl)-3-methoxybenzamide]	304	–
COc1nc(C(=O)N[S@@](=N)(=O)c2cccc3c2OCC3)ccc1Cn1cccn1 [Compound 303a, (R)-5-((1H-pyrazol-1-yl)methyl)-N-(2,3-dihydrobenzofuran-7-sulfonimidoyl)-6-methoxypicolinamide]	26	–
COc1nc(C(=O)N[S@](=N)(=O)c2cccc3c2OCC3)ccc1Cn1cccn1 [Compound 303b, (S)-5-((1H-pyrazol-1-yl)methyl)-N-(2,3-dihydrobenzofuran-7-sulfonimidoyl)-6-methoxypicolinamide]	108	–
COc1cc(C(=O)N[S@@](=N)(=O)c2c(OC)ccc(C)c2OC)ccc1Cn1cccn1 [Compound 304a, (R)-4-((1H-pyrazol-1-yl)methyl)-N-(2,6-dimethoxy-3-methylphenylsulfonimidoyl)-3-methoxybenzamide]	18	–
COc1cc(C(=O)N[S@](=N)(=O)c2c(OC)ccc(C)c2OC)ccc1Cn1cccn1 [Compound 304b, (S)-4-((1H-pyrazol-1-yl)methyl)-N-(2,6-dimethoxy-3-methylphenylsulfonimidoyl)-3-methoxybenzamide]	130	–
COc1cccc(F)c1[S@](=N)(=O)NC(=O)c1ccc(Cn2cccn2)c(OC)n1 [Compound 305a, (R)-5-((1H-pyrazol-1-yl)methyl)-N-(2-fluoro-6-methoxyphenylsulfonimidoyl)-6-methoxypicolinamide]	15	–
COc1cccc(F)c1[S@@](=N)(=O)NC(=O)c1ccc(Cn2cccn2)c(OC)n1 [Compound 305b, (S)-5-((1H-pyrazol-1-yl)methyl)-N-(2-fluoro-6-methoxyphenylsulfonimidoyl)-6-methoxypicolinamide]	318	–
COc1cc(C)cc(OC)c1[S@](=N)(=O)NC(=O)c1ccc(Cn2cccn2)c(OC)n1 [Compound 306a, (R)-5-((1H-pyrazol-1-yl)methyl)-N-(2,6-dimethoxy-4-methylphenylsulfonimidoyl)-6-methoxypicolinamide]	12	–
COc1cc(C)cc(OC)c1[S@@](=N)(=O)NC(=O)c1ccc(Cn2cccn2)c(OC)n1 [Compound 306b, (S)-5-((1H-pyrazol-1-yl)methyl)-N-(2,6-dimethoxy-4-methylphenylsulfonimidoyl)-6-methoxypicolinamide]	280	–
COc1nc(C(=O)N[S@@](=N)(=O)c2ccccc2F)ccc1Cn1cccn1 [Compound 307a, (R)-5-((1H-pyrazol-1-yl)methyl)-N-(2-fluorophenylsulfonimidoyl)-6-methoxypicolinamide]	108	–
COc1nc(C(=O)N[S@](=N)(=O)c2ccccc2F)ccc1Cn1cccn1 [Compound 307b, (S)-5-((1H-pyrazol-1-yl)methyl)-N-(2-fluorophenylsulfonimidoyl)-6-methoxypicolinamide]	–	46
COc1nc(C(=O)N[S@@](=N)(=O)c2c(F)cccc2F)ccc1Cn1cccn1 [Compound 308a, (R)-5-((1H-pyrazol-1-yl)methyl)-N-(2,6-difluorophenylsulfonimidoyl)-6-methoxypicolinamide]	1580	–
COc1nc(C(=O)N[S@](=N)(=O)c2c(F)cccc2F)ccc1Cn1cccn1 [Compound 308b, (S)-5-((1H-pyrazol-1-yl)methyl)-N-(2,6-difluorophenylsulfonimidoyl)-6-methoxypicolinamide]	49	–
COc1cc(C(=O)NS(=O)(=O)c2cc(Cl)cc3c2OCC3)ccc1Cn1cccn1 [Compound 309, 4-((1H-pyrazol-1-yl)methyl)-N-((5-chloro-2,3-dihydrobenzofuran-7-yl)sulfonyl)-3-methoxybenzamide]	17	–
COc1cc(C(=O)NS(=O)(=O)c2ccc3c(c2)CCO3)ccc1Cn1cccn1 [Compound 310, 4-((1H-pyrazol-1-yl)methyl)-N-((2,3-dihydrobenzofuran-5-yl)sulfonyl)-3-methoxybenzamide]	112	–
COc1ccc(S(=O)(=O)NC(=O)c2ccc(Cn3cccn3)c(OC)c2)cc1Cl [Compound 311, 4-((1H-pyrazol-1-yl)methyl)-N-((3-chloro-4-methoxyphenyl)sulfonyl)-3-methoxybenzamide]	135	–
COc1cc(C(=O)NS(=O)(=O)c2ccccc2OC2CC2)ccc1Cn1cccn1 [Compound 313, 4-((1H-pyrazol-1-yl)methyl)-N-((2-cyclopropoxyphenyl)sulfonyl)-3-methoxybenzamide]	32	–
COc1cc(C(=O)NS(=O)(=O)c2cccc3c2OC(C)C3)ccc1Cn1cccn1 (stereo not shown) [Compound 314, 4-((1H-pyrazol-1-yl)methyl)-3-methoxy-N-((2-methyl-2,3-dihydrobenzofuran-7-yl)sulfonyl)benzamide]	13	–
